Reference: patent US20250228239A1, “MOLECULES HAVING PESTICIDAL UTILITY, AND INTERMEDIATES, COMPOSITIONS, AND PROCESSES, RELATED THERETO” (priority 2024, published 2025)
Where two headings read alike, the source gives them in different places.

Legend:
[1] = test system: Beet Armyworm (Spodoptera exigua, LAPHEG); assay: Bioassays on Beet Armyworm (BAW), 128-well diet tray assay; format: in vivo; details: Spodoptera exigua
In short: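 Percent larval mortality, averaged across eight wells, scored after five to seven days at 25° C. under 14:10 light-dark. Each well held one to five second instars feeding on diet dosed at 50 μg/cm^2 with compound from 90:10 acetone-water, solvent dried off.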

[2] = test system: Cabbage Looper (Trichoplusia ni, TRIPNI); assay: Bioassays on Cabbage Looper (CL), 128-well diet tray assay; format: in vivo; details: Trichoplusia ni
In short: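 One to five second-instar larvae per well on artificial diet surface-treated with 50 μg/cm^2 test molecule (applied in 90:10 acetone-water, dried). Held 5–7 days at 25° C, 14:10 light-dark; percent mortality recorded per well and averaged over eight wells.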

[3] = Beet Armyworm, Table ABC / ABC-DP rating, read-out: BAW rating
[4] = Cabbage Looper, Table ABC / ABC-DP rating, read-out: CL rating
[5] = Beet Armyworm, rating class, read-out: BAW
[6] = Cabbage Looper, rating class, read-out: CL
[7] = Table ABC: Biological Results, species BAW, read-out: BAW
[8] = Table ABC: Biological Results, species CL, read-out: CL

Compound `O=C(NCC(F)(F)F)c1cc(NC(=O)[C@@H]2[C@@H](c3ccc(F)c(F)c3)C2(Cl)Cl)ccc1Cl` [F2100, 2-Chloro-5-((1S,3S)-2,2-dichloro-3-(3,4-difluorophenyl)cyclopropane-1-carboxamido)-N-(2,2,2-trifluoroethyl)benzamide] has a pest or weed control at 50 µg/cm2 [1, 3] of 50 to 100% and a pest or weed control at 50 µg/cm2 [2, 4] of 50 to 100%.

`CC(=O)Nc1c(F)ccc(NC(=O)c2cc(NC(=O)[C@H]3[C@H](c4ccc(Cl)c(Cl)c4)C3(Cl)Cl)cc(C)c2Cl)c1F` [F1543, N-(3-Acetamido-2,4-difluorophenyl)-2-chloro-5-((1R,3R)-2,2-dichloro-3-(3,4-dichlorophenyl)cyclopropane-1-carboxamido)-3-methylbenzamide] was tested, and the pest or weed control at 50 µg/cm2 [1, 5] was 50 to 100% and the pest or weed control at 50 µg/cm2 [2, 6] was 50 to 100%.

For `O=C(Nc1ccc(F)c(NC(=O)C2(C(F)(F)F)CCC2)c1F)c1cc(NC(=O)[C@H]2[C@H](c3ccc(F)c(C(F)(F)F)c3)C2(Cl)Cl)ccc1Cl` [F1849, 2-Chloro-5-((1R,3R)-2,2-dichloro-3-(4-fluoro-3-(trifluoromethyl)phenyl)cyclopropane-1-carboxamido)-N-(2,4-difluoro-3-(1-(trifluoromethyl)cyclobutane-1-carboxamido)phenyl)benzamide], the pest or weed control at 50 µg/cm2 [1, 3] was 50 to 100% and the pest or weed control at 50 µg/cm2 [2, 4] was 50 to 100%.

Work on `CC(C)(C)OC(=O)N(C(=O)OC(C)(C)C)c1c(F)ccc(NC(=O)c2cc(NC(=O)[C@H]3[C@H](c4cc(F)cc(C(F)(F)F)c4)C3(Cl)Cl)ccc2Cl)c1F` [F1681, tert-Butyl N-tert-butoxycarbonyl-N-[3-[[2-chloro-5-[[(1R,3R)-2,2-dichloro-3-[3-fluoro-5-(trifluoromethyl)phenyl]cyclopropanecarbonyl]amino]benzoyl]amino]-2,6-difluoro-phenyl]carbamate] yielded a pest or weed control at 50 µg/cm2 [1, 5] of 50 to 100% and a pest or weed control at 50 µg/cm2 [2, 6] of 50 to 100%.

With `Nc1cc(NC(=O)c2cc(NC(=O)[C@H]3[C@H](c4ccc(Cl)c(Cl)c4)C3(Cl)Cl)cc(F)c2Cl)c(F)cc1F` [F1396, N-(5-Amino-2,4-difluorophenyl)-2-chloro-5-((1R,3R)-2,2-dichloro-3-(3,4-dichlorophenyl)cyclopropane-1-carboxamido)-3-fluorobenzamide] the pest or weed control at 50 µg/cm2 [1, 5] was 50 to 100% and the pest or weed control at 50 µg/cm2 [2, 6] was 50 to 100%.

`CCNC(=O)c1cc(NC(=O)[C@H]2[C@H](c3ccc(F)c(Cl)c3)C2(Cl)Cl)cc(F)c1Cl` (relative stereo) [F2033, trans-2-Chloro-5-(2,2-dichloro-3-(3-chloro-4-fluorophenyl)cyclopropane-1-carboxamido)-N-ethyl-3-fluorobenzamide] gave a pest or weed control at 50 µg/cm2 [1, 3] of 50 to 100% and a pest or weed control at 50 µg/cm2 [2, 4] of 50 to 100%.

In the case of `O=C(NNCc1ccc(F)cc1)c1cc(NC(=O)[C@H]2[C@H](c3cc(Cl)cc(Cl)c3)C2(Cl)Cl)ccc1Cl` (relative stereo) [F2570, trans-2,2-dichloro-N-(4-chloro-3-(2-(4-fluorobenzyl)hydrazine-1-carbonyl)phenyl)-3-(3,5-dichlorophenyl)cyclopropane-1-carboxamide], the mortality at 50 µg/cm2 ([1]; 168 h, second instar larvae, 50 μg/cm^2 of test molecule on artificial diet, 25° C., five to seven days, average of eight wells, read-out: BAW % Control (or Mortality) rating) is reported as 50 to 100%, the pest or weed control at 50 µg/cm2 [1, 3] is reported as 50 to 100% and the mortality at 50 µg/cm2 ([2]; 168 h, second instar larvae, 50 μg/cm^2 of test molecule on artificial diet, 25° C., five to seven days, average of eight wells, read-out: CL % Control (or Mortality) rating) is reported as 50 to 100%. It also gave a pest or weed control at 50 µg/cm2 [2, 4] of 50 to 100%.

`CC(=O)Nc1c(F)ccc(NC(=O)c2cc(NC(=O)[C@H]3[C@H](c4ccc(Cl)c(Cl)c4)C3(Cl)Cl)ccc2Cl)c1F` [F1083, N-(3-acetamido-2,4-difluorophenyl)-2-chloro-5-((1R,3R)-2,2-dichloro-3-(3,4-dichlorophenyl)cyclopropane-1-carboxamido)benzamide] was tested, and the pest or weed control at 50 µg/cm2 [1, 7] was 50 to 100% and the pest or weed control at 50 µg/cm2 [2, 8] was 50 to 100%.

Compound `O=C(Nc1ccc(F)c(NC(=O)C(Cl)(Cl)Cl)c1F)c1cc(NC(=O)[C@H]2[C@H](c3ccc(Cl)c(Cl)c3)C2(Cl)Cl)ccc1Cl` [F1063, 2-Chloro-5-((1R,3R)-2,2-dichloro-3-(3,4-dichlorophenyl)cyclopropane-1-carboxamido)-N-(2,4-difluoro-3-(2,2,2-trichloroacetamido)phenyl)benzamide] has a pest or weed control at 50 µg/cm2 [1, 7] of 50 to 100% and a pest or weed control at 50 µg/cm2 [2, 8] of 50 to 100%.

In the case of `Nc1cc(NC(=O)c2cc(NC(=O)[C@H]3[C@H](c4cc(Cl)cc(Cl)c4)C3(Cl)Cl)cc(F)c2Cl)c(F)cc1F` [F1399, N-(5-Amino-2,4-difluorophenyl)-2-chloro-5-((1R,3R)-2,2-dichloro-3-(3,5-dichlorophenyl)cyclopropane-1-carboxamido)-3-fluorobenzamide], the pest or weed control at 50 µg/cm2 [1, 5] is reported as 50 to 100% and the pest or weed control at 50 µg/cm2 [2, 6] is reported as 50 to 100%.

`CC(=O)Nc1c(F)ccc(NC(=O)c2cc(NC(=O)[C@H]3[C@H](c4ccc(F)c(Br)c4)C3(Cl)Cl)ccc2Cl)c1F` [F1716, N-(3-Acetamido-2,4-difluorophenyl)-5-((1R,3R)-3-(3-bromo-4-fluorophenyl)-2,2-dichlorocyclopropane-1-carboxamido)-2-chlorobenzamide] was tested, and the pest or weed control at 50 µg/cm2 [1, 5] was 50 to 100% and the pest or weed control at 50 µg/cm2 [2, 6] was 50 to 100%.

`CCOC(=O)Nc1c(F)ccc(NC(=O)c2cc(NC(=O)[C@H]3[C@H](c4ccc(Cl)c(Cl)c4)C3(Cl)Cl)ccc2Cl)c1F` [F1476, Ethyl (3-(2-chloro-5-((1R,3R)-2,2-dichloro-3-(3,4-dichlorophenyl)cyclopropane-1-carboxamido)benzamido)-2,6-difluorophenyl)carbamate] gave a pest or weed control at 50 µg/cm2 [1, 5] of 50 to 100% and a pest or weed control at 50 µg/cm2 [2, 6] of 50 to 100%.

For `O=C(Nc1c(F)ccc(NC(=O)C(F)(F)F)c1F)c1cc(NC(=O)[C@H]2[C@H](c3ccc(Cl)c(Cl)c3)C2(Cl)Cl)cc(F)c1Cl` [F1344, 2-Chloro-5-((1R,3R)-2,2-dichloro-3-(3,4-dichlorophenyl)cyclopropane-1-carboxamido)-N-(2,6-difluoro-3-(2,2,2-trifluoroacetamido)phenyl)-3-fluorobenzamide], the pest or weed control at 50 µg/cm2 [1, 7] was 50 to 100% and the pest or weed control at 50 µg/cm2 [2, 8] was 50 to 100%.

In the case of `O=C(Nc1ccc(F)c(NC(=O)C(F)(F)c2ccccc2)c1F)c1cc(NC(=O)[C@H]2[C@H](c3ccc(Cl)c(Cl)c3)C2(Cl)Cl)ccc1Cl` [F1471, 2-Chloro-5-((1R,3R)-2,2-dichloro-3-(3,4-dichlorophenyl)cyclopropane-1-carboxamido)-N-(3-(2,2-difluoro-2-phenylacetamido)-2,4-difluorophenyl)benzamide], the pest or weed control at 50 µg/cm2 [1, 5] is reported as 50 to 100% and the pest or weed control at 50 µg/cm2 [2, 6] is reported as 50 to 100%.

With `CC(=O)Nc1cc(NC(=O)c2cc(NC(=O)[C@H]3[C@H](c4ccc(Cl)c(Cl)c4)C3(Cl)Cl)cc(C)c2Cl)c(F)cc1F` [F1546, N-(5-Acetamido-2,4-difluorophenyl)-2-chloro-5-((1R,3R)-2,2-dichloro-3-(3,4-dichlorophenyl)cyclopropane-1-carboxamido)-3-methylbenzamide] the pest or weed control at 50 µg/cm2 [1, 5] was 50 to 100% and the pest or weed control at 50 µg/cm2 [2, 6] was 50 to 100%.

For `CC(=O)Nc1ccc(NC(=O)c2cc(NC(=O)[C@H]3[C@H](c4ccc(F)c(Cl)c4)C3(Cl)Cl)cc(Cl)c2F)cc1` (relative stereo) [F1197, trans-N-(4-Acetamidophenyl)-3-chloro-5-(2,2-dichloro-3-(3-chloro-4-fluorophenyl)cyclopropane-1-carboxamido)-2-fluorobenzamide], the pest or weed control at 50 µg/cm2 [1, 7] was 50 to 100% and the pest or weed control at 50 µg/cm2 [2, 8] was 50 to 100%.

`O=C(Nc1cc(NC(=O)C(F)(F)C(F)F)c(F)cc1F)c1cc(NC(=O)[C@H]2[C@H](c3cc(Cl)c(Cl)c(Cl)c3)C2(Cl)Cl)ccc1Cl` [F1568, 2-Chloro-5-((1R,3R)-2,2-dichloro-3-(3,4,5-trichlorophenyl)cyclopropane-1-carboxamido)-N-(2,4-difluoro-5-(2,2,3,3-tetrafluoropropanamido)phenyl)benzamide] gave a pest or weed control at 50 µg/cm2 [1, 5] of 50 to 100% and a pest or weed control at 50 µg/cm2 [2, 6] of 50 to 100%.

`O=C(Nc1ccc(F)c(NC(=O)C(F)F)c1F)c1cc(NC(=O)[C@H]2[C@H](c3cccc(S(F)(F)(F)(F)F)c3)C2(Cl)Cl)ccc1Cl` (relative stereo) [F1293, trans-2-Chloro-5-(2,2-dichloro-3-(3-(pentafluoro-λ^6-sulfanyl)phenyl)cyclopropane-1-carboxamido)-N-(3-(2,2-difluoroacetamido)-2,4-difluorophenyl)benzamide] showed a pest or weed control at 50 µg/cm2 [1, 7] of 50 to 100% and a pest or weed control at 50 µg/cm2 [2, 8] of 50 to 100%.

Work on `CC(OC(F)(F)F)C(=O)Nc1c(F)ccc(NC(=O)c2cc(NC(=O)[C@H]3[C@H](c4cc(F)cc(C(F)(F)F)c4)C3(Cl)Cl)ccc2Cl)c1F` (stereo partly drawn) [F1773, 2-Chloro-5-((1R,3R)-2,2-dichloro-3-(3-fluoro-5-(trifluoromethyl)phenyl)cyclopropane-1-carboxamido)-N-(2,4-difluoro-3-(2-(trifluoromethoxy)propanamido)phenyl)benzamide] yielded a pest or weed control at 50 µg/cm2 [1, 3] of 50 to 100% and a pest or weed control at 50 µg/cm2 [2, 4] of 50 to 100%.

Work on `O=C(Nc1ccc(F)c(NC(=O)C2CCCO2)c1F)c1cc(NC(=O)[C@H]2[C@H](c3ccc(F)c(Br)c3)C2(Cl)Cl)ccc1Cl` (stereo partly drawn) [F1714, N-(3-(5-((1R,3R)-3-(3-Bromo-4-fluorophenyl)-2,2-dichlorocyclopropane-1-carboxamido)-2-chlorobenzamido)-2,6-difluorophenyl)tetrahydrofuran-2-carboxamide] yielded a pest or weed control at 50 µg/cm2 [1, 5] of 50 to 100% and a pest or weed control at 50 µg/cm2 [2, 6] of 50 to 100%.

Work on `C=CCC(=O)Nc1c(F)ccc(NC(=O)c2cc(NC(=O)[C@H]3[C@H](c4ccc(Cl)c(Cl)c4)C3(Cl)Cl)ccc2Cl)c1F` [F1873, N-(3-(But-3-enamido)-2,4-difluorophenyl)-2-chloro-5-((1R,3R)-2,2-dichloro-3-(3,4-dichlorophenyl)cyclopropane-1-carboxamido)benzamide] yielded a pest or weed control at 50 µg/cm2 [1, 3] of 50 to 100% and a pest or weed control at 50 µg/cm2 [2, 4] of 50 to 100%.
